Tests used:
[1] = monomer/dimer equilibrium of DHA dissolved in water; assay type: physicochemical; conditions: DHA solutions at 30-50° C. versus 20° C.
Text: It is assumed that the effect, advantageous according to the invention, of the improved tanning effect at elevated temperatures in the case of 1,3-dihydroxyacetone is connected with the following mechanism. As a raw material, DHA is in the form of a powder and consists of dimers. Dissolved in water, some of the dimers convert to the active monomeric form, which brings about the tanning reaction. At an elevated water temperature, the amount of monomers increases. […] At the same time, the elevated temperature increases the reaction rate of the tanning reaction. […] It is therefore preferred according to the invention when the solution of the self-tanning substance is tempered for about 15 min, but at least about 10 min, before the solution is applied to the human skin.

[2] = over the entire pH range; cited from earlier work

Row | SMILES | more active DHA monomers present than in DHA solutions at 20° C. [1] | antioxidative activity relative to the investigated structures [2]
1 | O=C(CO)CO [DHA, 1,3-dihydroxyacetone] | up to 30% | 
2 | O=c1c(O)c(-c2ccc(O)c(O)c2)oc2cc(O)cc(O)c12 [quercetin, 3,3′,4′,5,7-pentahydroxyflavone] |  | highest activity of the investigated structures
